“Also recorded” adds a separate entry of the source.
Columns and labels:
[1] = UUO study: body weight, kidney weight, general condition; type: in vivo; conditions: UUO mice
Experimental: UUO Surgery: On day 0 of the study, UUO surgery was performed on mice under pentobarbital sodium anesthesia. The mouse's hair was first shaved and then abdomen cut open to exteriorize the mouse's left ureter. The ureter was ligated 4-0 nylon sutures at two points. The mouse's peritoneum and skin were then closed with sutures, and the mouse transferred to a clean cage until recovered from the anesthesia. Sham operated mice had their left ureter exposed but not ligated. […]
Animals: Seven-week-old female C57BL/6 mice (i.e., animals) were obtained from Japan SLC, Inc. (Japan) and were housed and fed with a normal diet (CE-2; CLEA Japan, Japan) under controlled conditions. The animals were maintained in a specific-pathogen free (SPF) facility under controlled conditions of temperature (e.g., 23±2° C.), humidity (e.g., 45±10%), lighting (e.g., 12-hour artificial light and dark cycles; light from 8:00 to 20:00) and air exchange. A high pressure was maintained in the experimental room to prevent contamination of the facility. The animals were housed in TPX cages (CLEA Japan) with a maximum of 4 mice per cage. Sterilized Paper-Clean (Japan SLC) was used for bedding and replaced once a week. Sterilized solid normal diet was provided ad libitum, being placed in a metal lid on the top of the cage. Pure water was also provided ad libitum from a water bottle equipped with a rubber stopper and a sipper tube. Water bottles were replaced once a week, cleaned, and sterilized in an autoclave and reused. Mice were identified by ear punch and each cage was labeled with a specific identification code.
Animal Monitoring and Sacrifice: The viability, clinical signs and behavior for the mice were monitored daily. Individual body weight was measured daily before treatment during the treatment period. […] The animals were sacrificed by exsanguination through direct cardiac puncture under isoflurane anesthesia (Pfizer Inc.) at Day 14.

UUO mice [2] = experiment: UUO study: kidney hydroxyproline content; type: in vivo, C57BL/6 mice
Experimental: (§1) UUO Surgery: On day 0 of the study, UUO surgery was performed on mice under pentobarbital sodium anesthesia. The mouse's hair was first shaved and then abdomen cut open to exteriorize the mouse's left ureter. The ureter was ligated 4-0 nylon sutures at two points. The mouse's peritoneum and skin were then closed with sutures, and the mouse transferred to a clean cage until recovered from the anesthesia. Sham operated mice had their left ureter exposed but not ligated.
Measurement of Kidney Biochemistry: To quantify kidney hydroxyproline content, frozen left kidney samples were processed by an alkaline-acid hydrolysis method as follows: kidney samples were dissolved in 2 normal (N) sodium hydroxide (NaOH) at 65° C. and autoclaved at 121° C. for 20 minutes. The lysed samples (400 μL) were acid-hydrolyzed with 400 μL of 6N hydrochloride acid (HCl) at 121° C. for 20 minutes, and neutralized with 400 μL of 4N NaOH containing 10 mg/mL of activated carbon. An AC buffer (e.g., 2.2M acetic acid/0.48M citric acid, 400 μL) was added to the samples, followed by centrifugation to collect the supernatant. A standard curve of hydroxyproline was constructed with serial dilutions of trans-4-hydroxy-L-proline (Sigma-Aldrich, USA) starting at 16 μg/mL. The prepared samples and standards (e.g., each 400 μL) were mixed with 400 μL chloramine T solution (Wako Pure Chemical Industries, Japan) and incubated for 25 minutes at room temperature. The samples were then mixed with Ehrlich's solution (e.g., 400 μL) and heated at 65° C. for 20 minutes to develop the color. After samples were cooled on ice and centrifuged to remove precipitates, the optical density of each supernatant was measured at 560 nanometers (nm). The concentrations of hydroxyproline were calculated from the hydroxyproline standard curve. Protein concentrations of kidney samples were determined using a bicinchoninic (BCA) protein assay kit (Thermo Fisher Scientific, USA) and used to normalize the calculated hydroxyproline values. Kidney hydroxyproline contents were expressed as microgram (μg) per mg protein.

UUO mice [3] = experiment: UUO study: Sirius red staining of kidney sections, fibrosis area; type: in vivo, C57BL/6 mice; conditions: for Sirius red-positive area: kidney
Experimental: as §1
Histopathological analysis: To visualize collagen deposition, kidney sections were stained using picro-Sirius red solution (Waldeck, Germany). For quantification of interstitial fibrosis area, bright field images in the corticomedullary region were captured using a digital camera (e.g., DFC295; Leica Microsystems, Germany) at 200-fold magnification, and the positive areas in 5 fields/section were measured using ImageJ software (National Institute of Health, USA).

[4] = tested on: TGF-β induced epithelial mesenchymal transition (EMT) protein production; experiment: TGF-β induced EMT protein production in HepG2 cells; type: cell-based, human; conditions: increasing doses for 1 hour, then 200 pM TGF-β for 48 hours
Experimental: The effects of 15-HEPE on TGF-β-induced signaling and cellular responses were determined. To test the effect of 15-HEPE on TGF-β-induced signaling, the activities of 15-HEPE to regulate TGF-β-stimulated Smad2 phosphorylation and nuclear translocation, both of which are key signaling events leading to TGF-β-induced cellular responses, were tested. One important biological activity of TGF-β is transcriptional activation of genes responsible for epithelial-mesenchymal transition (EMT), which is a crucial event in wound healing, tissue fibrosis, and cancer progression. The effect of 15-HEPE on TGFβ-induced epithelial mesenchymal transition related proteins (such as fibronectin, PAI-1, and N-cadherin etc.) expression in HepG2 and […] cells were assessed. HepG2 cells (human hepatoma cell line) were treated in increasing doses of 15-HEPE stage II in DMEM containing 0.1% of FBS for 1 hour and continually stimulated with or without 200 picomolar (pM) of TGF-β for 48 hours.
HepG2 cells (human hepatoma cell line) were treated in increasing doses of 15-HEPE stage II in DMEM containing 0.1% of FBS for 1 hour and continually stimulated with or without 200 picomolar (pM) of TGF-β for 48 hours. The two panels shown in FIG. 18A are two separate experiments run under the same experimental conditions.

[5] = tested on: TGF-β-stimulated intracellular signaling (SMAD2/3 phosphorylation); experiment: TGF-β-stimulated SMAD2/3 phosphorylation in LX2 liver stellate cells; type: cell-based, human; conditions: 0 μM to 100 μM for 24 hours, then 30 min TGF-β stimulation
[6] = tested on: TβR-II (type II TGF-β receptor); experiment: Sucrose density gradient analysis in Mv1Lu cells, TβR-II; type: cell-based, mink; conditions: summary, free acid or ethyl ester form
Experimental: Sucrose gradient ultracentrifugation and confocal microscopy were used to identify 15-HEPE induced microdomain translocation of TGF-β receptors by sucrose. Sucrose density gradient analysis of TGF-β receptors was conducted in the plasma membranes of Mv1Lu cells (mink lung epithelial cell) treated with 100 μM of 15-HEPE and an equal volume of DMSO (dimethyl sulfoxide) at 37° C. for 0, 1, 4, and 24 hours, and the cell lysates from these treated cells were subjected to sucrose density gradient ultracentrifugation. The sucrose gradient fractions were then analyzed by Western blot analysis using anti-TβR-I (type I TGF-β receptor), anti-TβR-II (type II TGF-β receptor), anti-TβR-III (type III TGF-β receptor, betaglycan), anti-EGFR (epidermal growth factor receptor), and anti-caveolin-1 antibodies. The lipid raft/caveolae, and non-lipid raft microdomain localization of TβR-I, TβR-II, TβR-III, EGFR and caveolin-1 in the plasma membrane of untreated cells or cells treated with 15-HEPE were assessed to determine the effects of 15-HEPE on the membrane microdomain localization of the TGF-β receptors.
A 15-HEPE sucrose density gradient analysis of TGF-β receptors was conducted in the plasma membranes of mink lung epithelial cell (Mv1 Lu) cells treated with 100 μM of 15-HEPE and an equal volume of dimethyl sulfoxide (DMSO) at 37° C. for 0, 1, 4, and 24 hours, and the cell lysates from these treated cells were subjected to sucrose density gradient ultracentrifugation. The sucrose gradient fractions were then analyzed by Western blot analysis using anti-TβR-I (type I TGF-β receptor—FIG. 18C), anti-TβR-II (type II TGF-β receptor—FIG. 18D), anti-TβR-III (type III TGF-β receptor, betaglycan—FIG. 18E), anti-EGFR (epidermal growth factor receptor—FIG. 18F), and anti-caveolin-1 antibodies (FIG. 18G). Fractions 4 to 5 contained lipid rafts/caveolae whereas fractions 7-10 were non-lipid raft fractions. […] Stars (★) indicate 15-HEPE increased abundance of TβR-I (24 hours) in the fraction in comparison with that of the control and shorter treatment durations (FIG. 18C). […] The triangles (▾) indicate translocation and decreased abundance of TβR-II in the fraction in comparison with control cells (FIG. 18D).

[7] = 50 mg/kg PO QD Day 0-13, Day 14
[8] = 250 mg/kg PO QD Day 0-13, Day 14

| Structure (SMILES) | Body Weight ([1]; 5 mg/kg PO QD Day 0-13, Day 14) [g] | Body Weight [1, 7] [g] | Body Weight [1, 8] [g] | kidney hydroxyproline contents compared with the Vehicle group (UUO mice [2]; 5 mg/kg) | Kidney hydroxyproline (UUO mice [2]; 5 mg/kg PO QD Day 0-13, Day 14) [μg/mg total protein] | kidney hydroxyproline contents compared with the Vehicle group (UUO mice [2]; 50 mg/kg) | Kidney hydroxyproline (UUO mice [2]; [7]) [μg/mg total protein] | kidney hydroxyproline contents compared with the Vehicle group (UUO mice [2]; 250 mg/kg) | Kidney hydroxyproline (UUO mice [2]; [8]) [μg/mg total protein] | fibrosis area compared with the Vehicle group (UUO mice [3]; 5 mg/kg, Mann-Whitney U test (p<0.1)) | fibrosis area compared with the Vehicle group (UUO mice [3]; 50 mg/kg, Bonferroni Multiple Comparison) | fibrosis area compared with the Vehicle group (UUO mice [3]; 50 mg/kg, Mann-Whitney U test (p<0.1)) | fibrosis area compared with the Vehicle group (UUO mice [3]; 250 mg/kg, Mann-Whitney U test (p<0.1)) | Sirius red-positive area (UUO mice [3]; 5 mg/kg PO QD Day 0-13, Day 14) [%] | Sirius red-positive area (UUO mice [3]; [7]) [%] | Sirius red-positive area (UUO mice [3]; [8]) [%] | TGF-β induced EMT (pro-fibrotic) protein production [4] | TGF-β-stimulated intracellular signaling (SMAD2/3 phosphorylation) [5] | translocation and degradation of type II TGF-β receptors [6] |
| --- | --- | --- | --- | --- | --- | --- | --- | --- | --- | --- | --- | --- | --- | --- | --- | --- | --- | --- | --- |
| CCCCCC(O)/C=C/C=C\C/C=C\CCCCCCC(=O)O (stereo not shown) [DS109, 15-hydroxy-eicosa-8Z,11Z,13E-trienoic acid] | 19.1 ± 0.9 | 18.6 ± 0.6 | 18.6 ± 0.7 | significant decreases | 9.94 ± 2.02 | no significant difference | 13.94 ± 6.44 | significant decreases | 8.30 ± 1.04 | tended to decrease; also recorded: reduction trend | tended to decrease | tended to decrease; also recorded: reduction trend | tended to decrease; also recorded: reduction trend | 4.23 ± 1.90 | 3.58 ± 1.04 | 4.71 ± 0.96 |  |  |  |
| CCC=CCC(O)C=CC=CCC=CCC=CCCCC(=O)OCC (stereo not shown) [15-HEPE EE] |  |  |  |  |  |  |  |  |  |  |  |  |  |  |  |  | blocked TGF-β induced pro-fibrotic protein production | inhibited TGF-β induced intracellular signaling (SMAD2/3) | induced translocation and degradation of type II TGF-β receptors |
